Marks after values point to notes of the source that are not given here.
Tests used:
[1] = test system: human H460 NSCLC cells; assay: In vitro chemosensitization of standard chemotherapeutic agents; format: cell-based
[2] = test system: PARP; assay: Tumor PARP catalytic activity, 32P-NAD incorporation in SW620 tumor homogenates of treated animals; format: in vivo, mice; conditions: temozolomide alone, oral gavage
Protocol: Tumours were excised and were snap frozen in liquid nitrogen and stored at −80° C. until homogenised for analysis. The specimen was defrosted on ice and the wet weight documented. The tissue was homogenised using a Pro 2000 instrument (Pro Scientific Inc, Monroe, Conn., USA) in 3 volumes (i.e. 1 mg plus 3 μl isotonic buffer −7 mM Hepes, 26 mM KCl, 0.1 mM dextran, 0.4 mM EGTA, 0.5 mM MgCl2, 45 mM sucrose, pH 7.8), giving a homogenate with an overall dilution of 1 in 4. The homogenate was kept on ice throughout the process, and homogenisation was performed in 10 second bursts to prevent undue warming of the sample. Prior to assay the samples were further diluted with isotonic buffer where necessary to give a final dilution of 1 in 40 for [^32P]NAD incorporation assay or 1 in 1000 for immunoblot aaasy.
Briefly, cells were suspended in hypotonic buffer (9 mM HEPES pH 7.8, 4.5% (v/v) dextran, 4.5 mM MgCl2 and 5 mM DTT) at 1.5×10^7/ml on ice for 30 minutes then 9 vol of isotonic buffer (40 mM HEPES pH 7.8, 130 mM KCl, 4% (v/v) dextran, 2 mM EGTA, 2.3 mM MgCl2, 225 mM sucrose and 2.5 mM DTT) was added. The reaction was started by adding 300 μl cells to 100 μl 300 μM NAD^+ containing [^32P]-NAD^+ (Amersham, UK), and terminated by the addition of 2 ml ice cold 10% (w/v) TCA+10% (w/v) sodium pyrophosphate. After 30 min on ice the precipitated ^32P—labelled ADP-ribose polymers were filtered on Whatman GC/C filters (Whatman Intemational Ltd, Kent, UK), washed 5 times with 1% (v/v) TCA/1% (v/v) sodium pyrophosphate, dried and counted. PARP inhibitory IC50 values were calculated from computer-fitted curves (GraphPad Software, Inc., San Diego, Calif.).
Tumour homogenates were assayed in a similar manner; however, the homogenisation process introduces sufficient DNA damage to maximally stimulate PARP activity and oligonucleotide was not therefore required. Results were expressed in terms of pmol PAR former per mg tumour.
Preparation of Tumour/Tissue Samples • 1. The frozen tumour samples are weighed. • 2. 3 volumes (i.e. 3 μl solution added for each 1 mg tissue) of isotonic buffer plus DTT is added to the tumour sample. This is stored on ice until and during homogenisation. • 3. The sample is homogenised on ice within a Class II cabinet for 10-second bursts until no detectable macroscopic pieces of tissue are visible. • 4. Sufficient volume of the homogenate is diluted 1 in 10 with isotonic buffer plus DTT to provide an overall dilution of 1 in 40 from the original sample. A final volume of 3 ml is sufficient for triplicate sampling and a subsequent protein assay. • 5. The diluted homogenate is stored on ice and assayed within one hour as below.
PARP Assay of Tumour/Tissue Samples • 1. ^32P 600 μM NAD solution is prepared fresh on the day of experiment as detailed above. Oligonucleotide stock is removed from storage and defrosted. • 2. Water bath is warmed to 26° C. and set to agitate at 70 oscillations per minute.
3. Reaction test tubes are set up as per table A for the QC samples and as per table B for the homogenate.
• 4. Each QC sample is assayed in triplicate, with T0, +oligo and −oligo samples ×3. (Total of 9 tubes per sample, if low cell counts −oligo samples are omitted.) Homogenates are also assayed in triplicate, with T0 and reaction samples ×3. (Total 6 tubes per sample). • 5. 2 ml ice cold 10% TCA+10% NaPPi is added to the T0 tubes prior to addition of homogenate or cells, to correct for non-specific binding of radio-label to the filter. • 6. Reaction test tubes homogenates and QC cells are warmed in the water bath to 26° C. for 7 minutes. • 7. Each preparation is vortexed briefly and the reaction is started by adding 300 μl of this to each reaction tube. • 8. The reaction is stopped exactly 6 minutes after addition of homogenate by adding 2 ml of ice cold 10% TCA+10% NaPPi and vortexing. • 9. The tube is then incubated on ice for at least one hour prior to filtration. • 10. […]

[3] = test system: SW620 xenograft; assay: In vivo antitumor efficacy with irinotecan, SW620 xenograft; set-up: species or system mice
Excerpt: In no combination study was antagonism observed.

[4] = GI50 single agent/GI50 agent +0.4 μM Compound I (phosphate salt) instead of glucuronate salt
[5] = GI50 single agent/GI50 agent +0.4 μM compound of formula 1 as glucuronate salt

O=C1[O][Pt]2([NH][C@@H]3CCCC[C@H]3[NH]2)[O]C1=O [Oxaliplatin]
PF50 (H460) [1, 4]: 0.98^b

CC[C@@]1(O)C(=O)OCc2c1cc1n(c2=O)Cc2cc3c(CN(C)C)c(O)ccc3nc2-1 [Topotecan]
PF50 (H460) [1, 5]: 1.6

N.N.[Cl][Pt][Cl] [Cisplatin]
PF50 (H460) [1, 5]: 1.2

Nc1nc2nc[nH]c2c(=S)[nH]1 [6-thioguanine]
PF50 (H460) [1, 5]: 1.1

Cn1nnc2c(C(N)=O)ncn2c1=O [Temozolomide, reference compound]
PF50 (H460) [1, 4]: 3.7^b | PARP Activity (%) [2]: 100%

CC(=O)O[C@H]1C(=O)[C@@]2(C)[C@H]([C@H](OC(=O)c3ccccc3)[C@]3(O)C[C@H](OC(=O)[C@H](O)[C@@H](NC(=O)c4ccccc4)c4ccccc4)C(C)=C1C3(C)C)[C@]1(OC(C)=O)CO[C@@H]1C[C@@H]2O [Paclitaxel]
PF50 (H460) [1, 5]: 0.77

Nc1ccn([C@@H]2O[C@H](CO)[C@@H](O)C2(F)F)c(=O)n1 [Gemcitabine]
PF50 (H460) [1, 5]: 1.2

O=c1[nH]cc(F)c(=O)[nH]1 [5-Fluorouracil]
PF50 (H460) [1, 5]: 0.92

CCc1c2c(nc3ccc(O)cc13)-c1cc3c(c(=O)n1C2)COC(=O)[C@]3(O)CC [SN-38]
PF50 (H460) [1, 5]: 2.2

COc1cc([C@@H]2c3cc4c(cc3[C@@H](O[C@@H]3O[C@@H]5CO[C@@H](C)O[C@H]5[C@H](O)[C@H]3O)[C@H]3COC(=O)[C@H]23)OCO4)cc(OC)c1O [Etoposide]
PF50 (H460) [1, 4]: 0.75^b

COc1cccc2c1C(=O)c1c(O)c3c(c(O)c1C2=O)C[C@@](O)(C(=O)CO)C[C@@H]3O[C@H]1C[C@H](N)[C@H](O)[C@H](C)O1 [Doxorubicin]
PF50 (H460) [1, 5]: 1.1

CCc1c2c(nc3ccc(OC(=O)N4CCC(N5CCCCC5)CC4)cc13)-c1cc3c(c(=O)n1C2)COC(=O)[C@]3(O)CC [irinotecan, reference compound]
inhibition of SW620 tumor growth as single agent ([3]; irinotecan 25 mg/kg, QW×3 IP): did not significantly inhibit SW620 tumor growth | toxicity ([3]; irinotecan single agent groups): No significant toxicity

Source: patent US20060074073A1, “Therapeutic combinations comprising poly (ADP-ribose) polymerases inhibitor” (AGOURON PHARMACEUTICALS, INC., priority 2004, published 2006)
